Publication PMC12627862, “Therapeutic targeting of endothelial calcium signaling accelerates the resolution of lung injury” (Signal Transduction and Targeted Therapy, 2025)
Starred links: 1 amine or outer side, 2 acyl side, 3 side chain; linkers in the order of their positions; H or OH if unused. Positions of bridges follow the written chain, without caps; N, C: chain ends. Non-standard residues stand in square brackets, D forms with d. Residues, ends and D or L forms follow the SMILES beside them. ξ: configuration not given here. X2 = C[C@@](CCCCC=[*:3])(N[*:1])C(=O)[*:2]; Oic = O=C(O)[C@@H]1C[C@@H]2CCCC[C@@H]2N1; GABOB(3R) = O=C(C[C@@H](O)CN[*:1])[*:2]; d(tBuAla) = CC(C)(C)C[C@@H](N)C(=O)O; dVal(3-OH) = CC(C)(O)[C@@H](N)C(=O)O; tBuAla = CC(C)(C)C[C@H](N)C(=O)O; ξVal(3-OH) = CC(C)(O)C(N)C(=O)O; R5 = C=CCCC[C@@](C)(N)C(=O)O; X1 = O=C(CC(O)CN[*:1])[*:2]; 4Amb = NCc1ccc(C(=O)O)cc1

Assays:
[1] = Pharmacokinetic studies in rats
Description: Blood samples were collected at predefined time points (2, 10, 30, 60, 90 minutes, and 2, 4, 6, 8, and 24 hours post-dosing) from subgroups of rats, ensuring each animal contributed a limited number of samples to minimize stress. Plasma was separated by centrifugation and stored at -80 °C until analysis. Lungs were collected at selected time points (0.5, 2, 8, and 24 hours) for drug quantification. […] Pharmacokinetic parameters, including Cmax, Tmax, AUC, half-life, clearance, and volume of distribution, were calculated using Phoenix WinNonlin software.

[2] = system: splenocytes from CD1 mice; experiment: Cytokine release by immune cells in vitro; format: cell-based, mouse; details: 2 µg/mL LPS for 2 hours, VT-109 200 nM and 1 µM
Description: VT-109’s effect on cytokine release by immune cells in vitro. Freshly isolated splenocytes from CD1 mice were treated with 2 µg/mL LPS for 2 hours. Two different concentrations of VT-109 (200 nM and 1 µM) were tested, and the cells were treated concurrently with LPS. Untreated splenocytes served as the control. After the 2-hour incubation, MCP-1, TNF-α, KC, and IL-6 levels were measured in the growth media using mouse multiplexed ELISA array. Data are expressed as pg/mL.

in vitro = details: human, plasma
Description: Stability assay of peptides in blood plasma of rodents, dogs, and humans. For the plasma stability assay, 5 μM of each peptide was incubated with species-specific plasma for 120 minutes and samples were taken at the required time points. Positive control used were molecules with known stability: enalapril, propantheline, and warfarin. The amount of test compound remaining at each time point was analyzed by LC-MS/MS. Appropriate control compounds for each species were also incubated.

[3] = system: CD1 mice challenged with LPS; experiment: Endotoxemia model, sublethal LPS in oil-preloaded mice; format: in vivo, mouse; details: LPS 4 mg/kg i.p.
From the text: Considering the diverse etiological factors contributing to the pathogenesis of ARDS[29], we first assessed the therapeutic benefits of VT-109 in treating pulmonary vascular leakage in a murine model of endotoxemia-induced hyperinflammatory ARDS[30]. We induce a systemic inflammatory response by administering lipopolysaccharide (LPS), an endotoxin of the outer membrane of gram-negative bacteria, which elicits strong immune responses in animals, causing endothelial barrier breakdown and associated pulmonary edema, lung injury, morbidity, and mortality.
Using this model, we implemented two different i.v. treatment protocols with VT-109 (Fig. 3a, b). In cohort 1, mice received three daily doses of 1 µmol/kg bw VT-109 starting 24 hours after LPS challenge at the onset of lung injury. […] Cohort 3 mice received vehicle daily starting at 24 hours of LPS challenge. […] This inhibitory effect of VT-109 on neutrophil recruitment, a hallmark of lung inflammation and poor clinical prognosis, was consistent with our previous work[3]. Overall, our findings indicate that treating pulmonary vascular leakage reduces lung inflammation, in part, by restricting neutrophil transmigration through the endothelial barrier. […]
Evans’ blue-labeled albumin extravasation. […] The optical density of the supernatant was measured spectrophotometrically at 620 nm (Evans Blue) and 740 nm (hemoglobin correction), with the dye content normalized to the wet weight of the lungs. Corrections for hemoglobin were made as follows: Corrected absorbance (Evans blue) = Absorbance (620) - (1.426 × Absorbance (740) + 0.03). […]
Myeloperoxidase (MPO) measurements. […] MPO levels in the samples were determined using the o-dianisidine-H₂O₂ technique following enzyme extraction with hexadecyl-trimethylammonium bromide (HTAB). The absorbance change was measured at […] over a 3-minute period, and the data were expressed as ΔOD460/min/g lung tissue.

[4] = system: CD1 mice challenged with LD90 of LPS; experiment: Endotoxin-induced septic shock (LD90 LPS): survival and lung compliance; format: in vivo, mouse; details: for half maximal effective concentration (EC50) on the survival rate: LPS 30 mg/kg bw i.p. (LD90), i.v. once daily, three doses, from 20 hours after LPS, n = 10 mice per group
Description: To establish the effect of VT-109 on clinically translatable outcomes, we investigated its dose-dependent effect on survival rates in a murine model of septic shock (Fig. 5a, d). In experiments involving endotoxin-induced septic shock, mice were injected intraperitoneally with a lethal dose (LD) of LPS at 30 mg/kg bw, which caused 90% mortality. The treatment cohort of mice received i.v. VT-109 at doses ranging from 1 nmol/kg to 2 µmol/kg bw, which were administered once daily for a total of three doses. All the mice also received fluid resuscitation once a day for three days.
We next examined the effect of VT-109 on lung function at 250 nmol/kg bw, the dose that produced the greatest improvement in survival rates (Fig. 5a). Lung function was assessed by measuring lung compliance in mice challenged with a lethal dose of LPS (Fig. 5c). For the control, we used a non-effective dose of VT-109 at 1 nmol/kg bw, as 90% of the mice died before reaching 48 hours post-LPS treatment if left untreated. The 1 nmol/kg bw dose was not efficacious in our mortality studies but did delay death over a 48-hour period. Static lung compliance was measured at 10 cmH2O on the expiratory limb of a P‒V loop via the Salazar–Knowles equation[49].
In the survival studies, mice received i.p. corn oil at a dose of 0.35 mL two days before the challenge. CD1 mice were injected intraperitoneally with a lethal dose 90 (LD90) of LPS (Santa Cruz Biotechnology). In most experiments, this dose was 30 mg/kg bw; however, it was adjusted for each new batch of LPS in pilot studies. In the survival study, treatment with varying doses of VT-109 (1, 10, 100, 250, 500, and 2000 nmol/kg bw) was initiated 20 hours after the LPS challenge. In the lung compliance study, a non-efficacious dose (1 nmol/kg bw) of VT-109 was used as a control, while 250 nmol/kg bw of VT-109 was used for the experimental group. Both treatments were administered intravenously 20 hours after the LPS challenge. All mice received 1 mL of prewarmed saline daily for 3 days.

[5] = male, Crl:CD (SD), rat, in vivo, iv, 5 mg/kg
[6] = rat lungs, single IV 5 mg/kg, Phoenix WinNonlin
[7] = rat plasma, single IV 5 mg/kg, Phoenix WinNonlin

In the case of CC(C)(C)C[C@@H]1NC(=O)C[C@@H](O)CNC(=O)[C@@H]2C[C@@H]3CCCC[C@@H]3N2C(=O)[C@H](CC(C)(C)C)NC(=O)c2ccc(cc2)CNC(=O)C(C(C)(C)O)NC(=O)[C@@H](Cc2ccccc2)NC1=O (stereo partly drawn) [compound 109, (1^2S,1^3aS,1^7aS,3S,10S,13R,16S,20R)-13-benzyl-20-hydroxy-10-(2-hydroxypropan-2-yl)-3,16-dineopentyl-1^2,1^3,1^3a,1^4,1^5,1^6,1^7,1^7a-octahydro-1^1H-4,8,11,14,17,22-hexaaza-1(1,2)-indola-6(1,4)-benzenacyclotricosaphane-2,5,9,12,15,18,23-heptaone.] (cyclo([4Amb][tBuAla][Oic][GABOB(3R)][tBuAla][dF][ξVal(3-OH)])), the AUC(0-t) [1, 5] is reported as 12400 ng·h/mL, the C0 [1, 5] is reported as 46300 ng/mL and the Tmax [1, 5] is reported as 1.98 min. For the same molecule, the Vd [1, 5] was 3.1 L/kg, the clearance [1, 5] was 6.72 mL/min/kg and the half-life [1, 5] was 5.33 h. The “AUC (0-last)” value [1, 6] was 27219 ng·h/g, the Cmax [1, 6] was 3606 ng/g and the Lambda_z [1, 6] was 0.1535 h⁻¹. For the same molecule, the half-life [1, 6] was 4.52 h, the “persistence of substantial amounts in the lung post dose” value ([1]; rat lungs, single intravenous injection) was “at least 24 hours” and the Cmax [1, 7] was 40548 ng/mL. For the same molecule, the Lambda_z [1, 7] was 0.1299 h⁻¹, the “time of peak plasma concentrations (Cmax) after dosing” value ([1]; rat plasma, single intravenous injection) was at most 2 min and the “cytokine production by immune cells in vitro (MCP-1, TNFα, KC, IL-6)” value [2] was “nor did it directly alter cytokine production”. The half-life at 5 μM (in vitro) was over 8 h, the remaining at 2 h, 5 μM (in vitro) was 101% and the “pulmonary edema (EBA extravasation)” value ([3]; cohort 1: three daily i.v. doses of 1 µmol/kg bw starting 24 hours after LPS) was “promptly blocked the development of pulmonary edema”. The “pulmonary edema (EBA extravasation)” value ([3]; cohort 2: two daily i.v. doses of 1 µmol/kg bw starting 72 hours after LPS) was “accelerated the resolution of pulmonary edema”, the “myeloperoxidase (MPO) in the lung tissue” value ([3]; regardless of the treatment initiation time) was “consistently lowered” and the static lung compliance ([4]; LD90 LPS, 250 nmol/kg bw i.v., at 10 cmH2O, n = 3‒4) was 0.043 ± 0.001 ml/cm H₂O. The “half maximal effective concentration (EC50) on the survival rate” value [4] was 30 nmol/kg bw, the mortality ([4]; efficacious doses, starting at 100 nmol/kg bw or higher) was “reduced mortality” and the “EC50 on the survival rate, equivalent for humans” value ([4]; human equivalent of 30 nmol/kg bw) was 2.2 µg/kg bw. The “mice that died within 48 hours post-LPS challenge” value ([4]; lowest dose of VT-109 (1 nmol/kg)) was 90%.

With CC(C)(C)C[C@@H]1NC(=O)[C@](C)(NC(=O)c2ccc(CNC(=O)[C@H](N)C(C)(C)O)cc2)CCC/C=C\CCCC[C@@](C)(C(=O)N[C@H](CC(C)(C)C)C(=O)O)NC(=O)CC(O)CNC(=O)[C@@H]2C[C@@H]3CCCC[C@@H]3N2C1=O (stereo partly drawn) [compound 108, (2R)-2-((8S,18R,21S,23aS,27aS,28aS,Z)-18-(4-(((R)-2-amino-3-hydroxy-3-methylbutanamido)methyl)benzamido)-4-hydroxy-8,18-dimethyl-21-neopentyl-1,6,19,22-tetraoxo-1,2,3,4,5,6,7,8,9,10,11,12,15,16,17,18,19,20,21,22,23a,24,25,26,27,27a,28,28a-octacosahydro-[1,4,7,12]tetraazacyclotetracosino[4,5-a]indole-8-carboxamido)-4,4-dimethylpentanoic acid] (H-[dVal(3-OH)][4Amb][R5][tBuAla][Oic][X1][X2][d(tBuAla)]-OH; staple (Z) 3-7) the “half maximal effective concentration (EC50) on the survival rate” value [4] was 308 nmol/kg bw.
